From US20080193563A1, “HARNESSING WNT SIGNALING TO RESTRICT HIV REPLICATION” (priority 2006, published 2008)

How the values were obtained:
[1] = system: HIV-Bal in U87MG; experiment: Cytokine pre-stimulation and HIV-Bal replication in U87MG, p24 ELISA; format: cell-based; conditions: 24 h pre-stimulation, 0-1000 ng/ml, p24 day 7
Protocol: (§1) U87MG (A) and HFA (B) were pre-stimulated with increasing doses of either GM-CSF or IFNγ for 24 h followed by HIV-BAL infection for 24 hours. HIV replication was determined by measuring HIV p24 levels by ELISA seven days post-infection. The dotted line represents basal level of HIV infection of astrocytes without cytokine pre-treatment. Data is representative of three experiments performed in quadruplicate. Error bars represent standard deviations of the mean. Asterisks denote significant values (p<0.05) in comparison to untreated cultures as evaluated by analysis of variance.
(§2) To determine if pre-stimulation of astrocytes primes astrocytes, for productive HIV infection, U87MG and HFA were pre-treated for 24 hours with TNFγ, GM-CSF, or IFNγ at various concentrations (0-1000 ng/ml) then infected with HIV-Bal at 10 ng of HIV p24/1×10^6 cells for 24 hours. The cells were then washed extensively or trypsinized to remove bound virus and propagated in the presence of the respective cytokine concentration. HIV infection was monitored by p24 ELISA seven days post-infection. […]
(§3) IFN-γ Treatment and HIV Infection. […] HIV infection was monitored at day 7 postinfection by measuring p24 levels by conventional enzyme-linked immunosorbent assay (ELISA) (National Cancer Institute, Frederick, Md.).

[2] = system: HIV-Bal in HFA; experiment: Cytokine pre-stimulation and HIV-Bal replication in human fetal astrocytes, p24 ELISA; format: cell-based; conditions: 24 h pre-stimulation, p24 day 7
Protocol: as §1, §2, §3

Substance: IFNγ: cytokine secreted by lymphocytes, activated microglia and astrocytes; used to prime astrocytes
- Maximal induction of HIV replication vs untreated/infected cultures [1]: 10 fold
- Induction of HIV replication [2]: 2 fold
